In brackets after ≈: the same amount, converted by molar mass. Like-named read-outs stand apart in the source and are kept apart here.
Tests used:
Type in all cases: cell-based
[1] = tested on: Staphylococcus aureus NRS384 (MRSA); assay: Broth microdilution MIC, S. aureus NRS384 (MRSA); conditions: Staphylococcus aureus, broth microdilution, 37° C., 20 hours
Method in brief: (§1)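 Broth microdilution in strain-specific test medium with ~5.0×10^5 cfu/ml inoculum, 1% DMSO and two-fold compound dilutions from 64 to 0.0625 μg/ml. Plates were held 20 hours at 37° C in ambient air. S. pneumoniae colonies were grown beforehand on blood agar in 5% CO2.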

[2] = tested on: Bacillus subtilis ATCC 6633; assay: Broth microdilution MIC, B. subtilis ATCC 6633; conditions: ATCC6633, broth microdilution, 37° C., 20 hours, read-out: MIC B. subtilis ATCC 6633
Method in brief: as §1

[3] = tested on: Staphylococcus aureus ATCC 29213 (MSSA); assay: Broth microdilution MIC, S. aureus ATCC 29213 (MSSA); conditions: broth microdilution, 37° C., 20 hours, read-out: MIC S. aureus ATCC 29213 (MSSA)
Method in brief: as §1

[4] = MHIIB, read-out: MIC against S. aureus NRS 384 (MRSA)

MIC ([1]; read-out: MIC NRS 384 (MRSA)) [µg/mL] | MIC [1, 4] [µg/mL] | MIC [2] [µg/mL] | MIC [3] [µg/mL] | SMILES
1 (≈ 2.86 µM) | ≤ 1 | 0.5 (≈ 1.43 µM) | 1 (≈ 2.86 µM) | O=c1[nH]c(NCc2ccc(Cl)c(Cl)c2)nc2cnn(C3CC3)c12 [Compound 213, 1-Cyclopropyl-5-((3,4-dichlorobenzyl)amino)-1H-pyrazolo[4,3-d]pyrimidin-7(6H)-one]
> 64 |  | > 64 | > 64 | O=C(O)CCC(=O)N1CCC(n2ncc3nc(NCc4ccc(Cl)c(Cl)c4)[nH]c(=O)c32)CC1 [Compound 273, 4-(4-(5-((3,4-dichlorobenzyl)amino)-7-oxo-6,7-dihydro-1H-pyrazolo[4,3-d]pyrimidin-1-yl)piperidin-1-yl)-4-oxobutanoic Acid]
1 (≈ 2.64 µM) | ≤ 1 | 0.5 (≈ 1.32 µM) | 2 (≈ 5.29 µM) | O=c1[nH]c(NCc2ccc(Cl)c(Cl)c2)nc2cnn(C3CCCC3)c12 [Compound 214, 1-cyclopentyl-5-((3,4-dichlorobenzyl)amino)-1H-pyrazolo[4,3-d]pyrimidin-7(6H)-one]
1 (≈ 3.08 µM) | ≤ 1 | 1 (≈ 3.08 µM) | 2 (≈ 6.17 µM) | Cn1ncc2nc(NCc3ccc(Cl)c(Cl)c3)[nH]c(=O)c21 [Compound 2, 5-((3,4-Dichlorobenzyl)amino)-1-methyl-1H-pyrazolo[4,3-d]pyrimidin-7(6H)-one]
1 (≈ 2.36 µM) | ≤ 1 | 0.5 (≈ 1.18 µM) | 1 (≈ 2.36 µM) | COC(=O)CCCCn1ncc2nc(NCc3ccc(Cl)c(Cl)c3)[nH]c(=O)c21 [Compound 218, methyl 5-[5-[(3,4-dichlorophenyl)methylamino]-7-oxo-6H-pyrazolo[4,3-d]pyrimidin-1-yl]pentanoate]
32 |  | 2 | 32 | CN(C)CCOCCn1ncc2nc(NCc3ccc(Cl)c(Cl)c3)[nH]c(=O)c21.Cl [Compound 211, 5-((3,4-dichlorobenzyl)amino)-1-(2-(2-(dimethylamino)ethoxy)ethyl)-1H-pyrazolo[4,3-d]pyrimidin-7(6H)-one hydrochloride]
2 (≈ 5.91 µM) | ≤ 1 | 2 (≈ 5.91 µM) | 2 (≈ 5.91 µM) | Cc1nn(C)c2c(=O)[nH]c(NCc3ccc(Cl)c(Cl)c3)nc12 [Compound 44, 5-((3,4-dichlorobenzyl)amino)-1,3-dimethyl-1H-pyrazolo[4,3-d]pyrimidin-7(6H)-one]
8 (≈ 25.8 µM) |  | 4 (≈ 12.9 µM) | 8 (≈ 25.8 µM) | O=c1[nH]c(NCc2ccc(Cl)c(Cl)c2)nc2cn[nH]c12 [Compound 77, 5-((3,4-dichlorobenzyl)amino)-1H-pyrazolo[4,3-d]pyrimidin-7(6H)-one]
2 (≈ 5.43 µM) |  | 1 (≈ 2.72 µM) | 2 (≈ 5.43 µM) | COCCn1ncc2nc(NCc3ccc(Cl)c(Cl)c3)[nH]c(=O)c21 [Compound 126, 5-((3,4-dichlorobenzyl)amino)-1-(2-methoxyethyl)-1H-pyrazolo[4,3-d]pyrimidin-7(6H)-one]
> 64 |  | 16 |  | Cl.Cl.O=c1[nH]c(NCc2ccc(Cl)c(Cl)c2)nc2cnn(CCOCCN3CCNCC3)c12 [Compound 167, 5-[(3,4-dichlorophenyl)methylamino]-1-[2-(2-piperazin-1-ylethoxy)ethyl]-6H-pyrazolo[4,3-d]pyrimidin-7-one]
64 (≈ 125 µM) |  | 16 (≈ 31.3 µM) | > 64 | O=C([C@@H](O)[C@H](O)CO)N1CCC(n2ncc3nc(NCc4ccc(Cl)c(Cl)c4)[nH]c(=O)c32)CC1 [Compound 276, 5-((3,4-dichlorobenzyl)amino)-1-(1-((2S,3R)-2,3,4-trihydroxybutanoyl)piperidin-4-yl)-1H-pyrazolo[4,3-d]pyrimidin-7(6H)-one]
4 |  | 2 | 8 | Cl.O=c1[nH]c(NCc2ccc(Cl)c(Cl)c2)nc2cnn(C3CCN(C4CCOCC4)CC3)c12 [Compound 242, 5-((3,4-dichlorobenzyl)amino)-1-(1-(tetrahydro-2H-pyran-4-yl)piperidin-4-yl)-1H-pyrazolo[4,3-d]pyrimidin-7(6H)-one hydrochloride]
1 (≈ 2.59 µM) | ≤ 1 | 1 (≈ 2.59 µM) | 1 (≈ 2.59 µM) | O=c1[nH]c(NCc2ccc(Cl)c(Cl)c2)nc2cnn(-c3ccccc3)c12 [Compound 212, 5-[(3,4-dichlorophenyl)methylamino]-1-phenyl-6H-pyrazolo[4,3-d]pyrimidin-7-one]
0.5 (≈ 1.43 µM) | ≤ 1 | 0.25 (≈ 0.714 µM) | 1 (≈ 2.86 µM) | C=CCn1ncc2nc(NCc3ccc(Cl)c(Cl)c3)[nH]c(=O)c21 [Compound 56, 1-allyl-5-((3,4-dichlorobenzyl)amino)-1H-pyrazolo[4,3-d]pyrimidin-7(6H)-one]
32 |  | 2 | 16 | Cl.O=c1[nH]c(NCc2ccc(Cl)c(Cl)c2)nc2cnn(CC3CNCCO3)c12 (stereo not drawn) [Compound 149, 5-((3,4-dichlorobenzyl)amino)-1-(morpholin-2-ylmethyl)-1H-pyrazolo[4,3-d]pyrimidin-7(6H)-one hydrochloride]

From patent US10723741B1, “DNA polymerase IIIC inhibitors and use thereof” (Acurx Pharmaceuticals, LLC, priority 2018, dated 2020)
